Each structure is given as a SMILES string. Numbered stars: 1 amine (or outer) side, 2 acyl side, 3 side chain; on linkers, the order of the positions; unused ones are H or OH. Square brackets hold non-standard residues; d marks the D form. Peptide text beside a SMILES is read from it. * marks the point of attachment. Biotin = O=C1N[C@H]2[C@H](CS[C@H]2CCCCC(=O)*)N1; Brosyl = O=S(=O)(c1ccc(Br)cc1)*; X15 = O=S(=O)(c1cccc2cccnc12)*; Nle = CCCC[C@H](N)C(=O)O; Piperidide = C1CCN(*)CC1; Nva = CCC[C@H](N)C(=O)O; PhAc = O=C(Cc1ccccc1)*; CO = O=C([*:1])[*:2]; NHPh = c1ccc(N*)cc1; Ahx = NCCCCCC(=O)O; OtBu = CC(C)(C)O*; Sar = CNCC(=O)O; tBu = CC(C)(C)*

For the first experiment, the target named is VLA-4 (Homo sapiens, UniProt P05556+P13612). In words: In vitro binding inhibition of 51Cr-labeled Jurkat cells to solid phase-bound CS-1 compound (SEQ ID NO:1). Type of experiment: cell-based. Also noted: inflammatory cells that contain the VLA-4 receptor [Jurkat cells; host or cells: Jurkat (human T lymphoblastic line).
VLA-4, sequence (P13612 34-1032): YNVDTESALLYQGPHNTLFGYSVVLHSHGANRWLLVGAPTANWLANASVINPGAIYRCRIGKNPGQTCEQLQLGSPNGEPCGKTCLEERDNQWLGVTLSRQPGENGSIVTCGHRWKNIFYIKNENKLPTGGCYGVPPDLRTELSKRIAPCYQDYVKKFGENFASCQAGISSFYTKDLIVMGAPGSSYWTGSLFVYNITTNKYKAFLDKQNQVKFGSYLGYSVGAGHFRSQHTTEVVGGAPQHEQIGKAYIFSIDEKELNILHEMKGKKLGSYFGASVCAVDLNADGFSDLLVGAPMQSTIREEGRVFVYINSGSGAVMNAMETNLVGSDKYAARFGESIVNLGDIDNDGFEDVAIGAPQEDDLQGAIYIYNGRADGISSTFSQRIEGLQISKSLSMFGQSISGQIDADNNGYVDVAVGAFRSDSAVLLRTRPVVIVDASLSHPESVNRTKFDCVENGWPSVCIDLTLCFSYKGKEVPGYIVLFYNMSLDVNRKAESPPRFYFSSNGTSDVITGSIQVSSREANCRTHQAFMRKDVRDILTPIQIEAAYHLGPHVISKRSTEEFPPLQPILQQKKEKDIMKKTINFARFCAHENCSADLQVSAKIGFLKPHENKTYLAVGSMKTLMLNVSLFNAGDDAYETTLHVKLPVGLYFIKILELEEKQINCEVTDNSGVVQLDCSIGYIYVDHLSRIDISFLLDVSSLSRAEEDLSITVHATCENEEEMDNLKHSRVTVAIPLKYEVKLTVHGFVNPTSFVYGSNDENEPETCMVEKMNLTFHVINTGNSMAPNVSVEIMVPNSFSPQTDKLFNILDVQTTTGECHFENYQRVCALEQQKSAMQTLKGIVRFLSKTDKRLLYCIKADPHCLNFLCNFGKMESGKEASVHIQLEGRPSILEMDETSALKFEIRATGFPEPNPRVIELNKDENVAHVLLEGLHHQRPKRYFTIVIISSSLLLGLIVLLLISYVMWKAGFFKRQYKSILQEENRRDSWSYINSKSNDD
VLA-4, sequence (P05556 21-798): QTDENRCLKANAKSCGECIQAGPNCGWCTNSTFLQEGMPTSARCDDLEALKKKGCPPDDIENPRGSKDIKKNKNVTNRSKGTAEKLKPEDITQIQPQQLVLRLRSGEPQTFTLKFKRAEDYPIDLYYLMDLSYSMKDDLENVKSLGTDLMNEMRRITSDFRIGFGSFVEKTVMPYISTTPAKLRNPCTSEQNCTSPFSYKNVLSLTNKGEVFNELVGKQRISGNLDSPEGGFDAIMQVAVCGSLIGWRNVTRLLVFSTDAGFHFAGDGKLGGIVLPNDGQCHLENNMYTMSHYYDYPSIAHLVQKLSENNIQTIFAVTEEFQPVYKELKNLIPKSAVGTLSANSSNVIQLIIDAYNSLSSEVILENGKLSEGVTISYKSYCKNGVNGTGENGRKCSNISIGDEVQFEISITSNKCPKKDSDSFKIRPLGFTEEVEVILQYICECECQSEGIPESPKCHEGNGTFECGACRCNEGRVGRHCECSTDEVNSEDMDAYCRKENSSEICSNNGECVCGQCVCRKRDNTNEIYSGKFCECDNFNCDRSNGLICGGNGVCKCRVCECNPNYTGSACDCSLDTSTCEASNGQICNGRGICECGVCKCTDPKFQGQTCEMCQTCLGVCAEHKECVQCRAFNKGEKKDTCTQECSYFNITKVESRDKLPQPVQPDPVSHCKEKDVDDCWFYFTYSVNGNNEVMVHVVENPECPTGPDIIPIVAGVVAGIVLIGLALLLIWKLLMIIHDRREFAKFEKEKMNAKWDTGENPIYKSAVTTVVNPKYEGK
Conditions: not given
Here is the method: Binding inhibition is measured here as a concentration of compound that inhibits one-half the binding between a standard number of Jurkat cells and a standard amount of CS-1 compound bound to the surface of a microtiter plate well. Those concentrations are conveniently expressed as IC50 values, smaller numbers indicating a lower concentration required to inhibit 50 percent binding and therefore greater potency. Further specifics of this assay are provided hereinafter.
Jurkat cells (ATCC TIB 152), a human T lymphoblastic line, labeled with ^51 chromium were used to assay in vitro binding inhibition provided by various compounds discussed herein.
The plates were prepared as follows: The 25-mer CS-1 compound (SEQ ID NO:1) dissolved at 0.5-1 μg/ml in a buffer of 0.1M NaHCO3 at pH 9.5 that also contained 10 μg/ml of bovine serum albumin (BSA) or a conjugate of the CS-1 compound linked to […] (CS-1-OVA) dissolved at 1-2.5 μg/ml in the same buffer was used as the substrate. Each well of the microtiter plates was coated with 50 μl of substrate or buffer alone for controls. The wells were permitted to dry out completely and were then rinsed twice with PBS at pH 7.4. Non-specific binding sites of each well were then blocked using 200 μl per well of RPMI/1 percent BSA for two hours at room temperature.
Jurkat cells (3-5×10^6 cells) were placed into a 15 ml Falcon™ round-bottom tube with a cap. The tube was centrifuged, and the extra medium was then removed.
Two hundred microliters of a ^51 Cr labeling solution were added to the centrifuged cells and maintained in contact with the cells for 90-120 minutes in a warm room. […] Longer contact times provide a greater amount of labeling but lower cell viability.
The labeled cells are washed with (i) complete medium, (ii) 1 mM EDTA/PBS and then (iii) RPM1/1 percent BSA free of serum components. The cells are centrifuged after each washing. The cells are finally resuspended in serum-free RPMI/1 percent BSA at a concentration of 1×10^6 viable cells/ml, which provides a concentration that is diluted by one-half in the assay.
Inhibitor compounds are prepared as stock solutions at 20 mg/ml in DMSO in 1.5 ml cryogenic screwcap vials, and were stored at -70° C. Using Flow™ round-bottom or V-bottom microtiter plates, the inhibitor compounds were prepared at twice the assay concentration in RPMI/1 percent BSA at 60 μl/well.
Four initial dilutions were typically used.
The ^51 Cr-labeled cells ([…] at 60 μl/well) were then admixed with the diluted compound solutions. The admixtures were maintained at room temperature (about 22° C.) for 30 minutes.
One hundred microliters of each inhibitor compound/cell admixture were transferred to the substrate-coated wells. This was done in triplicate for each dilution. The resulting plates were incubated for 30 minutes at 37° C. and then washed gently three times with RPMI/1 percent BSA at 200 μl/well. Binding was observed microscopically, particularly after the second wash.
The bound cells were then lysed by the addition of a 0.5 percent solution of sodium dodecylsulfate in water at 100 μl/well. The resulting solutions were then processed for counting and calculation of IC50 values following usual procedures.
The data of Table 1 are normalized to the binding of SEQ ID NO: 3. […] Multiple assays for the same compound were averaged.
Take `CC(=O)N[C@@H](CC(C)C)C(=O)N[C@@H](CC(=O)O)C(=O)N[C@@H](Cc1ccccc1)C(N)=O` [926.32] (Ac-Leu-Asp-Phe-NH2): the “Relative Potency” value is “.47”. With `CC(=O)N[C@@H](Cc1ccccc1)C(=O)N[C@@H](CC(C)C)C(=O)N[C@@H](CC(=O)O)C(=O)N[C@@H](Cc1ccccc1)C(=O)N1CCC[C@@H]1C(N)=O` [951.42] (Ac-FLDF[dP]-NH2), the “Relative Potency” value came out at 35.4. `Cc1cccc(C)c1C(=O)N[C@@H](CC(C)C)C(=O)N[C@@H](CC(=O)O)C(=O)N[C@H](C(=O)N1CCC[C@@H]1C(N)=O)C(C)C` [896.36]: the “Relative Potency” value is listed as 3.13. Consider `CC(C)CN1C(=O)C(NC(=O)N[C@@H](CC(=O)O)C(=O)N[C@@H](Cc2ccccc2)C(=O)N2CCC[C@@H]2C(N)=O)Cc2ccccc21` (stereo partly drawn) [1014.01], for which the “Relative Potency” value was 1.22. On to `CC(C)C[C@H](NC(=O)[C@H](Cc1ccccc1)NC(=O)CCCCCNC(=O)CCCC[C@@H]1SC[C@@H]2NC(=O)N[C@@H]21)C(=O)N[C@@H](CC(=O)O)C(=O)N[C@@H](Cc1ccccc1)C(=O)N1CCC[C@@H]1C(N)=O` [951.13] ({Biotin-Ahx}-FLDF[dP]-NH2), for which the “Relative Potency (prodrug compound)” value is given as 74.5. For `O=C(O)C[C@H](NC(=O)N(Cc1ccccc1)Cc1ccccc1)C(=O)N[C@@H](Cc1ccccc1)C(=O)N1CCCCC1` [1027.03], the “Relative Potency” value is 0. On the same count and under the same terms, the result for `CC(C)C[C@H](NC(=O)Nc1ccccc1)C(=O)N[C@@H](CC(=O)O)C(=O)N[C@@H](Cc1ccccc1)C(=O)N1CCC[C@@H]1C(N)=O` [896.62] ({NHPh-CO}-LDF[dP]-NH2) reads 257; that for `CC(C)C[C@H](NS(=O)(=O)c1cccc2cccnc12)C(=O)N[C@@H](CC(=O)O)C(=O)N[C@@H](Cc1ccccc1)C(=O)N1CCC[C@@H]1C(N)=O` [951.07] (X15-LDF[dP]-NH2), 1.57; that for `CC[C@@H](C)[C@@H](N)C(=O)N[C@@H](CC(C)C)C(=O)N[C@@H](CC(=O)O)C(=O)N[C@H](C(=O)N1CCC[C@@H]1C(N)=O)C(C)C` [926.03], 1.83. Same read-out and setting: for `CC(C)C[C@H](N)C(=O)N[C@@H](CC(=O)O)C(=O)N[C@@H](Cc1ccccc1)C(N)=O` [926.31] (H-Leu-Asp-Phe-NH2) the value was 0.01. Still for that read-out and setting: for `CC(C)C[C@H](NC(=O)[C@@H](N)Cc1ccccc1)C(=O)N[C@@H](CC(=O)O)C(=O)N[C@H](C(=O)N1CCC[C@@H]1C(N)=O)C(C)C` [926.04] (H-FLDV[dP]-NH2) the value was 1.88. On to `CCC[C@H](NC(=O)[C@H](CC(=O)O)NC(=O)[C@H](CC(C)C)NC(=O)[C@@H](N)[C@@H](C)CC)C(=O)N1CCC[C@H]1C(N)=O` [926.16] (H-ILD[Nva]P-NH2), for which the “Relative Potency” value is recorded as “.34”. On the same count and under the same terms, the result for `CC[C@H](C)[C@H](N)C(=O)N[C@@H](CC(C)C)C(=O)N[C@@H](CC(=O)O)C(=O)N[C@H](C(=O)N1CCC[C@H]1C(N)=O)[C@@H](C)CC` [926.17] (H-ILDIP-NH2) reads “.21”; that for `CC(C)C[C@H](NC(=O)CCc1ccccc1)C(=O)N[C@@H](CC(=O)O)C(=O)N[C@H](C(=O)N1CCC[C@@H]1C(N)=O)C(C)C` [896.40], 5.32. The same measure, in the same setting: for `CC(C)C[C@H](NS(=O)(=O)c1ccc(Br)cc1)C(=O)N[C@@H](CC(=O)O)C(=O)N[C@@H](Cc1ccccc1)C(=O)N1CCC[C@@H]1C(N)=O` [951.10] (Brosyl-LDF[dP]-NH2) the value was “.63”; for `CC(C)CCC(=O)N[C@@H](CC(C)C)C(=O)N[C@@H](CC(=O)O)C(=O)N[C@H](C(=O)N1CCC[C@@H]1C(N)=O)C(C)C` [896.47], 5.01.

As for `CCC(C)CC(=O)N[C@@H](CC(C)C)C(=O)N[C@@H](CC(=O)O)C(=O)N[C@H](C(=O)N1CCC[C@@H]1C(N)=O)C(C)C` (stereo partly drawn) [896.46], the “Relative Potency” value is on record as 6.57.

`CC(C)C[C@@H]1NC(=O)N([C@@H](CC(=O)O)C(=O)N[C@@H](Cc2ccccc2)C(=O)N2CCCCC2)C1=O` [1047.05]: the “Relative Potency” value was determined as 12.5.

For the molecule `CC(C)C[C@H](NC(=O)c1cccnc1)C(=O)N[C@@H](CC(=O)O)C(=O)N[C@H](C(=O)N1CCC[C@@H]1C(N)=O)C(C)C` [896.42], the “Relative Potency” value was 38.1. Same read-out and setting: for `CC[C@H](C)[C@H](N)C(=O)N[C@@H](CC(C)C)C(=O)N[C@@H](CC(=O)O)C(=O)N[C@H](C(=O)N1CCC[C@H]1C(N)=O)C(C)C` [886.03] the value was 1.55. As for `CC(C)C[C@H](NC(=O)CCC1CCCCC1)C(=O)N[C@@H](CC(=O)O)C(=O)N[C@H](C(=O)N1CCC[C@@H]1C(N)=O)C(C)C` [896.45], the “Relative Potency” value is 1.75. Consider `CC[C@H](C)[C@H](N)C(=O)N[C@@H](CC(C)C)C(=O)N[C@@H](CC(=O)O)C(=O)N[C@@H](CCSC)C(=O)N1CCC[C@H]1C(N)=O` [926.13] (H-ILDMP-NH2), for which the “Relative Potency” value is “.3”. On the same count and under the same terms, for `CC[C@H](C)[C@H](N)C(=O)N[C@@H](CC(C)C)C(=O)N[C@@H](CC(=O)O)C(=O)N[C@H](C(=O)N1CCC[C@H]1C(=O)O)C(C)C` [886.05] (H-ILDVP-OH) the value was 2; for `CCCC[C@H](NC(=O)[C@@H](N)[C@@H](C)CC)C(=O)N[C@@H](CC(=O)O)C(=O)N[C@H](C(=O)N1CCC[C@H]1C(N)=O)C(C)C` [926.09] (H-I[Nle]DVP-NH2), “.41”.

Staying with this experiment, now noted: binding inhibition potency relative to standard compound of SEQ ID NO:3 = 1 (normalized IC50); about one-tenth or less assigned zero.
With `CC(C)C[C@H](NC(=O)Cc1ccccc1)C(=O)N[C@@H](CC(=O)O)C(=O)N[C@@H](Cc1ccccc1)C(=O)N1CCCCC1` [951.14] (PhAc-Leu-Asp-Phe-Piperidide), the “Relative Potency” value came out at 239. Same read-out and setting: for `CC(C)C[C@H](NC(=O)Cc1ccccc1)C(=O)N[C@@H](CC(=O)O)C(=O)NC1Cc2ccccc2N(CC(C)C)C1=O` (stereo partly drawn) [997.10] the value was 6.26; for `CC(C)C[C@H](NC(=O)Cc1ccccc1)C(=O)NC(CC(=O)O)(CC(=O)O)C(=O)N[C@@H](Cc1ccccc1)C(=O)N1CCCCC1` [1026.01], 0.

Regarding `CC(C)CN(CC(=O)Nc1ccccc1)C(=O)CN(CC(=O)O)C(=O)CN(Cc1ccccc1)C(=O)C1CCCC1` [1032.02], the “Relative Potency” value was “.63”. In the case of `CC(C)C[C@H](NC(=O)Cc1ccccc1)C(=O)N[C@@H](CC(=O)O)C(=O)N[C@H]1Cc2ccccc2[C@H]2CCCCN2C1=O` [1026.05], the “Relative Potency” value was 50.1. In the case of `CC(C)C[C@H](NC(=O)Cc1ccccc1)C(=O)N[C@@H](CC(=O)O)C(=O)N[C@@H](Cc1ccc(O)cc1)C(=O)N1CCC[C@H]1C(N)=O` [1036.01] (PhAc-LDYP-NH2), the “Relative Potency” value is given as 405.

Consider `CC(C)C[C@H](NC(=O)c1ccccc1)C(=O)N[C@@H](CC(=O)O)C(=O)N[C@H](C(=O)N1CCC[C@H]1C(N)=O)C(C)C` [896.35], for which the “Relative Potency” value is given as 16. Turning to `CC(C)C[C@H](NC(=O)Cc1ccccc1)C(=O)N[C@@H](CC(=O)O)C(=O)NC(c1ccccc1)c1ccccc1` [997.01], the “Relative Potency” value came to 2.66. Regarding `CC(C)C[C@H](NC(=O)Cc1ccccc1)C(=O)N[C@@H](CC(=O)O)C(=O)N[C@@H](Cc1ccc(OC(C)(C)C)cc1)C(=O)OC(C)(C)C` [1040.01] (PhAc-Leu-Asp-Tyr(tBu)-OtBu), the “Relative Potency” value was 2.66. Same read-out and setting: the result for `CC(C)C[C@H](NC(=O)Cc1ccccc1)C(=O)N[C@@H](CC(=O)O)C(=O)N[C@@H](Cc1ccccc1)C(N)=O` [997.12] (PhAc-Leu-Asp-Phe-NH2) reads “.45”; that for `CC(C)C[C@H](NC(=O)Cc1ccccc1)C(=O)N[C@@H](CC(=O)O)C(=O)N[C@@H](Cc1ccccc1)C(=O)N(C)CC(N)=O` [1190.04] (PhAc-LDF[Sar]-NH2), 196.

The experiment is the same for the next values; noted with them: relative to SEQ ID NO:3 = 1; potency before the prodrug compound is enzymatically converted to an active form.
Turning to `CCOC(=O)C[C@H](NC(=O)[C@H](CC(C)C)NC(=O)Cc1ccccc1)C(=O)N[C@@H](Cc1ccccc1)C(=O)N1CCC[C@@H]1C(N)=O` [1190.01] (PhAc-LD(OEt)F[dP]-NH2), the “Relative Potency (prodrug compound)” value is reported as 0.

(Values after patent US5770573A, “CS-1 peptidomimetics, compositions and methods of using the same” (Cytel Corporation, priority 1995, dated 1998).)
